Test results: ChEMBL document CHEMBL1122681, “(Acylaryloxy)acetic acid diuretics. 5. [(2-Alkyl- and 2,2-disubstituted-1,3-dioxo-5-indanyl)oxy]acetic acids” (J Med Chem, 1984)

Key:
Canis familiaris [1] = experiment: Compound was evaluated for diuretic activity, in female mongrel dogs by measuring volume of urine, after iv administration of 5 mg/kg (control/compound treatment results) Control = 1; type: ADME, organism-based, Canis lupus familiaris; parameters: dose 5 mg/kg, route intravenous; conditions: dog, in vivo
[2] = volume of urine at 3 mg/kg; type: ADME, organism-based; parameters: dose 3 mg/kg; conditions: in vivo
[3] = volume of urine at 81 mg/kg; type: ADME, organism-based; parameters: dose 81 mg/kg; conditions: in vivo
[4] = volume of urine at 9 mg/kg; type: ADME, organism-based; parameters: dose 9 mg/kg; conditions: in vivo
Pan troglodytes [5] = experiment: Compound was evaluated for diuretic activity in chimpanzee measured as increase in volume of urine at 1 mg/kg; type: functional
Pan troglodytes [6] = experiment: Compound was evaluated for diuretic activity in chimpanzee measured as clearance of […] and urate after intra venous administration of 1.25 mg/kg.; type: functional, Urine
Pan troglodytes [7] = experiment: Compound was evaluated for diuretic activity in chimpanzee measured as clearance of […] and urate after peroral administration of 5 mg/kg; type: functional, Urine; conditions: route oral
Pan troglodytes [8] = experiment: Compound was evaluated for diuretic activity in chimpanzee measured as increase in the number of microequivalents of Na+ /min at 1.25 mg/kg; type: functional, Urine
Pan troglodytes [9] = experiment: Compound was evaluated for diuretic activity in chimpanzee measured as increase in the number of microequivalents of Na+ /min at 5 mg/kg; type: functional, Urine
Pan troglodytes [10] = experiment: Compound was evaluated for diuretic activity in chimpanzee measured as increase in the number of microequivalents of cl- /min at 1.25 mg/kg; type: functional, Urine
Pan troglodytes [11] = experiment: Compound was evaluated for diuretic activity in chimpanzee measured as increase in volume of urine at 0.125 mg/kg; type: functional
Pan troglodytes [12] = experiment: Compound was evaluated for diuretic activity in chimpanzee measured as increase in the number of microequivalents of Cl- electrolyte/min at 5 mg/kg; type: functional, Urine
Pan troglodytes [13] = experiment: Compound was evaluated for diuretic activity in chimpanzee measured as increase in the number of microequivalents of K+ /min at 1.25 mg/kg; type: functional, Urine
Canis familiaris [14] = experiment: Compound was evaluated for diuretic activity, in female mongrel dogs by measuring amount of Cl- in urine after iv administration of 5 mg/kg (control/compound treatment results) Control = 8; type: functional, Canis lupus familiaris
Pan troglodytes [15] = experiment: Compound was evaluated for diuretic activity in chimpanzee measured as increase in the number of microequivalents of K+ /min at 5 mg/kg; type: functional, Urine
Canis familiaris [16] = experiment: Compound was evaluated for diuretic activity, in female mongrel dogs by measuring amount of Na+ in urine after iv administration of 5 mg/kg (control/compound treatment results) Control = 42; type: functional, Canis lupus familiaris
Canis familiaris [17] = experiment: Compound was evaluated for diuretic activity, in female mongrel dogs by measuring amount of K+ in urine after iv administration of 5 mg/kg (control/compound treatment results) Control = 5; type: functional, Canis lupus familiaris
Rattus norvegicus [18] = experiment: Compound was evaluated for diuretic activity administered orally in female rats measured as milliequivalents of Na+x 100 / cage at 81 mg/kg; type: functional, Urine; conditions: route oral
Rattus norvegicus [19] = experiment: Compound was evaluated for diuretic activity administered orally in female rats measured as milliequivalents of Na+x 100 / cage at 9 mg/kg; type: functional, Urine; conditions: route oral
Rattus norvegicus [20] = experiment: Compound was evaluated for diuretic activity administered orally in female rats measured as milliequivalents of Cl-+x 100 / cage at 27 mg/kg; type: functional, Urine; conditions: route oral
Rattus norvegicus [21] = experiment: Compound was evaluated for diuretic activity administered orally in female rats measured as milliequivalents of Cl-x 100 / cage at 3 mg/kg; type: functional, Urine; conditions: route oral
Rattus norvegicus [22] = experiment: Compound was evaluated for diuretic activity administered orally in female rats measured as milliequivalents of Cl-x 100 / cage at 81 mg/kg; type: functional, Urine; conditions: route oral
Rattus norvegicus [23] = experiment: Compound was evaluated for diuretic activity administered orally in female rats measured as milliequivalents of Cl-x 100 / cage at 9 mg/kg; type: functional, Urine; conditions: route oral
Rattus norvegicus [24] = experiment: Compound was evaluated for diuretic activity administered orally in female rats measured as milliequivalents of K+x 100 / cage at 27 mg/kg; type: functional, Urine; conditions: route oral
Rattus norvegicus [25] = experiment: Compound was evaluated for diuretic activity administered orally in female rats measured as milliequivalents of K+x 100 / cage at 3 mg/kg; type: functional, Urine; conditions: route oral
Rattus norvegicus [26] = experiment: Compound was evaluated for diuretic activity administered orally in female rats measured as milliequivalents of K+x 100 / cage at 81 mg/kg; type: functional, Urine; conditions: route oral
Rattus norvegicus [27] = experiment: Compound was evaluated for diuretic activity administered orally in female rats measured as milliequivalents of K+x 100 / cage at 9 mg/kg; type: functional, Urine; conditions: route oral
Rattus norvegicus [28] = experiment: Compound was evaluated for diuretic activity administered orally in female rats measured as milliequivalents of Na+x 100 / cage at 27 mg/kg; type: functional, Urine; conditions: route oral
Rattus norvegicus [29] = experiment: Compound was evaluated for diuretic activity administered orally in female rats measured as milliequivalents of Na+x 100 / cage at 3 mg/kg; type: functional, Urine; conditions: route oral
[30] = volume of urine at 27 mg/kg; type: ADME, organism-based; parameters: dose 27 mg/kg; conditions: in vivo
Pan troglodytes [31] = experiment: Compound was evaluated for diuretic activity in chimpanzee measured as increase in volume of urine at 1.25 mg/kg; type: functional
Pan troglodytes [32] = experiment: Compound was evaluated for diuretic activity in chimpanzee measured as increase in volume of urine at 5 mg/kg; type: functional
Pan troglodytes [33] = experiment: Compound was evaluated for diuretic activity in chimpanzee measured as clearance of […] and urate after intravenous administration of 1.25 mg/kg; type: functional, Urine
Pan troglodytes [34] = experiment: Compound was evaluated for diuretic activity in chimpanzee measured as increase in the number of microequivalents of Cl- electrolyte/min at 1.25 mg/kg; type: functional, Urine
Canis familiaris [35] = experiment: Compound was evaluated for diuretic activity, in female mongrel dogs by measuring amount of K+ in urine after iv administration of 5 mg/kg (control/compound treatment results) Control = 10; type: functional, Canis lupus familiaris
Canis familiaris [36] = experiment: Compound was evaluated for diuretic activity, in female mongrel dogs by measuring amount of Cl- in urine after iv administration of 5 mg/kg (control/compound treatment results) Control = 4; type: functional, Canis lupus familiaris
Canis familiaris [37] = experiment: Compound was evaluated for diuretic activity, in female mongrel dogs by measuring amount of Na+ in urine after iv administration of 5 mg/kg (control/compound treatment results) Control = 22; type: functional, Canis lupus familiaris

Q: With `CCC1(C)C(=O)c2cc(OCC(=O)O)c(Cl)c(Cl)c2C1=O` (centres undefined) as the compound, how does the Urine volume (Canis familiaris [1]) read?
A: Its Urine volume is 2 mL/min.

Q: What about the Urine volume [2] of the same compound?
A: The Urine volume was 30 mL.

Q: And the Urine volume [3]?
A: The Urine volume was 31 mL.

Q: And the Urine volume [4]?
A: The Urine volume was 29 mL.

Q: What about the Increase in volume (Pan troglodytes [5]) of the same compound?
A: The Increase in volume was 2 mL/min.

Q: What about the “Delta C urate / delta C insulin” value (Pan troglodytes [6]) of the same compound?
A: Its value is 0.43.

Q: And the “Delta C urate / delta C insulin” value (Pan troglodytes [7])?
A: Its value is 0.007.

Q: What about the Increase (Pan troglodytes [8]) of the same compound?
A: Its Increase is 187.

Q: And the Increase (Pan troglodytes [9])?
A: The Increase was 217.

Q: What about the Increase (Pan troglodytes [10]) of the same compound?
A: Its Increase is 267.

Q: And the Increase in volume (Pan troglodytes [11])?
A: The Increase in volume was 1.4 mL/min.

Q: What about the Increase (Pan troglodytes [12]) of the same compound?
A: Its Increase is 226.

Q: What about the Increase (Pan troglodytes [13]) of the same compound?
A: The Increase was 41.

Q: What about the Activity (Canis familiaris [14]) of the same compound?
A: Its Activity is 179 u equiv min-1.

Q: And the Increase (Pan troglodytes [15])?
A: The Increase was 30.

Q: And the Activity (Canis familiaris [16])?
A: Its Activity is 247 u equiv min-1.

Q: What about the Activity (Canis familiaris [17]) of the same compound?
A: Its Activity is 7 u equiv min-1.

Q: What about the Activity (Rattus norvegicus [18]) of the same compound?
A: Its Activity is 164.

Q: And the Activity (Rattus norvegicus [19])?
A: Its Activity is 80.

Q: And the Activity (Rattus norvegicus [20])?
A: The Activity was 130.

Q: What about the Activity (Rattus norvegicus [21]) of the same compound?
A: Its Activity is 64.

Q: And the Activity (Rattus norvegicus [22])?
A: The Activity was 250.

Q: What about the Activity (Rattus norvegicus [23]) of the same compound?
A: Its Activity is 97.

Q: And the Activity (Rattus norvegicus [24])?
A: Its Activity is 43.

Q: And the Activity (Rattus norvegicus [25])?
A: Its Activity is 46.

Q: What about the Activity (Rattus norvegicus [26]) of the same compound?
A: Its Activity is 89.

Q: And the Activity (Rattus norvegicus [27])?
A: Its Activity is 35.

Q: What about the Activity (Rattus norvegicus [28]) of the same compound?
A: Its Activity is 101.

Q: And the Activity (Rattus norvegicus [29])?
A: Its Activity is 50.

Q: And the Urine volume [30]?
A: The Urine volume was 27 mL.

Q: Which Urine volume (Canis familiaris [1]) does the source give for `CCC1(CC)C(=O)c2cc(OCC(=O)O)c(C)c(C)c2C1=O` here?
A: Its Urine volume is 2 mL/min.

Q: What about the Increase in volume (Pan troglodytes [31]) of the same compound?
A: Its Increase in volume is 2.2 mL/min.

Q: And the Increase in volume (Pan troglodytes [32])?
A: The Increase in volume was 0.6 mL/min.

Q: What about the “Delta C urate / delta C insulin” value (Pan troglodytes [33]) of the same compound?
A: Its value is 0.258.

Q: What about the “Delta C urate / delta C insulin” value (Pan troglodytes [7]) of the same compound?
A: Its value is 0.045.

Q: What about the Increase (Pan troglodytes [8]) of the same compound?
A: The Increase was 243.

Q: And the Increase (Pan troglodytes [9])?
A: The Increase was 103.

Q: What about the Increase (Pan troglodytes [34]) of the same compound?
A: The Increase was 288.

Q: What about the Increase (Pan troglodytes [12]) of the same compound?
A: Its Increase is 120.

Q: What about the Increase (Pan troglodytes [13]) of the same compound?
A: Its Increase is 46.

Q: And the Activity (Canis familiaris [35])?
A: The Activity was 21 u equiv min-1.

Q: What about the Activity (Canis familiaris [36]) of the same compound?
A: The Activity was 42 u equiv min-1.

Q: And the Increase (Pan troglodytes [15])?
A: Its Increase is 32.

Q: And the Activity (Canis familiaris [37])?
A: The Activity was 106 u equiv min-1.
